In PMC10266688 (PLOS ONE, 2023):
Where “and” joins values, the source holds several entries; their conditions need not be identical. Equal entries are not always repeated.

Legend:
[1] = mouse, in vivo, iv, 20 mg/kg
Experimental: The mice were divided into three groups consisting of three female CD1 mice each. […] Terminal blood sampling for hematological and serum biochemical analysis was performed on Day 7 of the study, 24 h after the last dosing. […] Terminal bleeding and euthanasia were performed on Day 7, 24 h after the third dosing. Blood collection was carried out after 6 h fasting. Animals were injected IP with 2,2,2-tribromoethanol (200 mg/kg) and the blood was collected from orbital sinuses into dry microtainers without anticoagulant. For the serum collection, the tubes with collected blood were held at RT for 15–60 min after blood drawing to form a clot, and then were centrifuged at 9000 rpm for 20 min at 4°C. The collected serum was frozen within 60–80 min after blood drawing and was stored at -20°C for further clinical chemistry analysis. For the hematological study, 25 μL of fresh blood was quickly mixed with an equal volume of 0.36% solution of K2EDTA in saline. Assessment of the hematological parameters was performed using the BIO TE hematology analyzer MCL-3124 and consumable reagents (Cormay) within 2 h of the blood draw. For clinical chemistry analyses, ASAT, ALAT, ALP, LDH, GGT, CK, Creatinine, Urea and TP were determined in the serum using commercial kits according to the manufacturer’s instructions.

TOV21G and ES2 cells = experiment: Annexin V apoptosis assay; settings: 12 h
[2] = Single administration dose escalation study (MTD, body weight, clinical observations), female CD1 mice; format: in vivo; settings: for Body weight change, Mean / Body weight change: day 7 vs initial weight; for Body weight change, Mean: group mean
Experimental: Mice were dosed on day 1 and clinical condition recorded at 0.5 h, 2 h, 4 h, 6 h, and days 1–7 (S6 Table).
Gc - general condition observation
X - treatment with compound or vehicle

N#Cc1ccc(/C=C2/C(=O)/C(=C/c3ccc(C#N)cc3)C23CCNCC3)cc1 [Up284]
other blood parameters vs vehicle [1]: did not significantly change | apoptosis, Up284 in combination with cisplatin (TOV21G and ES2 cells): no indication of synergy | Body weight, Mean ([2]; IP 40 mg/kg single dose, day 0, group mean): 24.20 g | Body weight ([2]; IP 40 mg/kg single dose, day 0, individual mice, 40 mg/kg): 25.6 g and 24.3 g and 22.7 g | Body weight, Mean ([2]; IP 40 mg/kg single dose, day 1, group mean): 22.83 g | Body weight ([2]; IP 40 mg/kg single dose, day 1, individual mice, 40 mg/kg): 23.9 g and 22.7 g and 21.9 g | Body weight, Mean ([2]; IP 40 mg/kg single dose, day 2, group mean): 22.97 g | Body weight ([2]; IP 40 mg/kg single dose, day 2, individual mice, 40 mg/kg): 23.3 g and 22.3 g | Body weight, Mean ([2]; IP 40 mg/kg single dose, day 3, group mean): 23.80 g | Body weight ([2]; IP 40 mg/kg single dose, day 3, individual mice, 40 mg/kg): 24.2 g and 24.5 g and 22.7 g | Body weight, Mean ([2]; IP 40 mg/kg single dose, day 4, group mean): 23.87 g | Body weight ([2]; IP 40 mg/kg single dose, day 4, individual mice, 40 mg/kg): 24.5 g and 24.6 g and 22.5 g | Body weight, Mean ([2]; IP 40 mg/kg single dose, day 5, group mean): 24.43 g | Body weight ([2]; IP 40 mg/kg single dose, day 5, individual mice, 40 mg/kg): 25.0 g and 25.1 g and 23.2 g | Body weight, Mean ([2]; IP 40 mg/kg single dose, day 6, group mean): 24.13 g | Body weight ([2]; IP 40 mg/kg single dose, day 6, individual mice, 40 mg/kg): 25.3 g and 24.6 g and 22.5 g | Body weight, Mean ([2]; IP 40 mg/kg single dose, day 7, group mean): 24.83 g | Body weight ([2]; IP 40 mg/kg single dose, day 7, individual mice, 40 mg/kg): 26.2 g and 24.5 g and 23.8 g | Body weight change, Mean ([2]; IP 40 mg/kg single dose): 2.67% | Body weight change ([2]; IP 40 mg/kg single dose, individual mice, 40 mg/kg): 2.34% and 0.82% and 4.85% | Clinical observation ([2]; IP 40 mg/kg, day 0, 0.5 h, individual mice): DPEh | Clinical observation ([2]; IP 40 mg/kg, day 0, 2 h, individual mice): HDPEh | Clinical observation ([2]; IP 40 mg/kg, day 0, 4 h, individual mice): HDPEh | Clinical observation ([2]; IP 40 mg/kg, day 0, 6 h, individual mice): DPEh | Clinical observation ([2]; IP 40 mg/kg, day 0, time 0, individual mice): 0 | Clinical observation ([2]; IP 40 mg/kg, day 1, individual mice, 40 mg/kg): 0 | Clinical observation ([2]; IP 40 mg/kg, day 2, individual mice): 0 | Clinical observation ([2]; IP 40 mg/kg, day 3, individual mice): 0 | Clinical observation ([2]; IP 40 mg/kg, day 4, individual mice): 0 | Clinical observation ([2]; IP 40 mg/kg, day 5, individual mice): 0 | Clinical observation ([2]; IP 40 mg/kg, day 6, individual mice): 0 | Clinical observation ([2]; IP 40 mg/kg, day 7, individual mice): 0 | Body weight, Mean ([2]; IP 60 mg/kg single dose, day 0, group mean): 24.00 g | Body weight ([2]; IP 60 mg/kg single dose, day 0, individual mice, 60 mg/kg): 24.4 g and 25.1 g and 22.5 g | Body weight ([2]; IP 60 mg/kg single dose, day 1, individual mice): died | Body weight change, Mean ([2]; IP 60 mg/kg single dose): -100.00% | Clinical observation ([2]; IP 60 mg/kg, day 0, 0.5 h, individual mice): DPEh | Clinical observation ([2]; IP 60 mg/kg, day 0, 2 h, individual mice): HDPEh | Clinical observation ([2]; IP 60 mg/kg, day 0, 4 h, individual mice): HDPEh | Clinical observation ([2]; IP 60 mg/kg, day 0, 6 h, individual mice): DPEh | Clinical observation ([2]; IP 60 mg/kg, day 0, time 0, individual mice): 0 | Clinical observation ([2]; IP 60 mg/kg, day 1, individual mice): died | Body weight, Mean ([2]; IV 40 mg/kg single dose, day 0, group mean): 24.50 g | Body weight ([2]; IV 40 mg/kg single dose, day 0, individual mice, 40 mg/kg): 26.2 g and 23.2 g and 24.1 g | Body weight, Mean ([2]; IV 40 mg/kg single dose, day 1, group mean): 23.90 g | Body weight ([2]; IV 40 mg/kg single dose, day 1, individual mice, 40 mg/kg): 25.5 g and 22.6 g and 23.6 g | Body weight, Mean ([2]; IV 40 mg/kg single dose, day 2, group mean): 24.07 g | Body weight ([2]; IV 40 mg/kg single dose, day 2, individual mice, 40 mg/kg): 25.7 g and 22.4 g and 24.1 g | Body weight, Mean ([2]; IV 40 mg/kg single dose, day 3, group mean): 25.03 g | Body weight ([2]; IV 40 mg/kg single dose, day 3, individual mice, 40 mg/kg): 26.5 g and 23.6 g and 25.0 g | Body weight, Mean ([2]; IV 40 mg/kg single dose, day 4, group mean): 25.23 g | Body weight ([2]; IV 40 mg/kg single dose, day 4, individual mice, 40 mg/kg): 27.7 g and 22.9 g and 25.1 g | Body weight, Mean ([2]; IV 40 mg/kg single dose, day 5, group mean): 25.17 g | Body weight ([2]; IV 40 mg/kg single dose, day 5, individual mice, 40 mg/kg): 28.0 g and 23.0 g and 24.5 g | Body weight, Mean ([2]; IV 40 mg/kg single dose, day 6, group mean): 24.97 g | Body weight ([2]; IV 40 mg/kg single dose, day 6, individual mice, 40 mg/kg): 27.2 g and 22.6 g and 25.1 g | Body weight, Mean ([2]; IV 40 mg/kg single dose, day 7, group mean): 25.07 g | Body weight ([2]; IV 40 mg/kg single dose, day 7, individual mice, 40 mg/kg): 27.2 g and 23.2 g and 24.8 g | Body weight change, Mean ([2]; IV 40 mg/kg single dose): 2.24% | Body weight change ([2]; IV 40 mg/kg single dose, individual mice, 40 mg/kg): 3.82% and 0.00% and 2.90% | Clinical observation ([2]; IV 40 mg/kg, day 0, 2 h, individual mice): 0 | Clinical observation ([2]; IV 40 mg/kg, day 0, 4 h, individual mice): 0 | Clinical observation ([2]; IV 40 mg/kg, day 0, 6 h, individual mice): 0 | Clinical observation ([2]; IV 40 mg/kg, day 0, time 0, individual mice): 0 | Clinical observation ([2]; IV 40 mg/kg, day 1, individual mice): 0 | Clinical observation ([2]; IV 40 mg/kg, day 2, individual mice): 0 | Clinical observation ([2]; IV 40 mg/kg, day 3, individual mice): 0 | Clinical observation ([2]; IV 40 mg/kg, day 4, individual mice): 0 | Clinical observation ([2]; IV 40 mg/kg, day 5, individual mice): 0 | Clinical observation ([2]; IV 40 mg/kg, day 6, individual mice): 0 | Clinical observation ([2]; IV 40 mg/kg, day 7, individual mice): 0 | Body weight, Mean ([2]; IV 60 mg/kg single dose, day 0, group mean): 24.43 g | Body weight ([2]; IV 60 mg/kg single dose, day 0, individual mice, 60 mg/kg): 26.0 g and 22.7 g and 24.6 g | Body weight, Mean ([2]; IV 60 mg/kg single dose, day 1, group mean): 24.47 g | Body weight ([2]; IV 60 mg/kg single dose, day 1, individual mice, 60 mg/kg): 26.7 g and 22.6 g and 24.1 g | Body weight, Mean ([2]; IV 60 mg/kg single dose, day 2, group mean): 24.77 g | Body weight ([2]; IV 60 mg/kg single dose, day 2, individual mice, 60 mg/kg): 27.1 g and 23.4 g and 23.8 g | Body weight, Mean ([2]; IV 60 mg/kg single dose, day 3, group mean): 24.73 g | Body weight ([2]; IV 60 mg/kg single dose, day 3, individual mice, 60 mg/kg): 26.5 g and 23.7 g and 24.0 g
